For two compounds, Kd results are on record in paper PMC8746709, “Benzothiazolium Derivative-Capped Silica Nanocomposites for β-Amyloid Imaging In Vivo” (Analytical Chemistry, 2021).

Structures are written as SMILES.

In this assay the target is T1, β-amyloid(1–42) (Aβ1–42) aggregates (Homo sapiens, UniProt P05067).
T1 construct: gene APP; Aβ1–42, aggregates (filamentous)
Nature of the assay: fluorescence saturation binding assay with Aβ[…] aggregates.

T1 sequence (P05067 672-713): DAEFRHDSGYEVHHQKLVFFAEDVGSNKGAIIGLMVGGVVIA

Broadly, the Kd is a measure of binding affinity in units of concentration. Higher therefore signals a looser complex. For `CN(C)c1ccc(/C=C/C=C/c2sc3ccccc3[n+]2C)cc1` [SZI-2, 2-((1E,3E)-4-(4-(Dimethylamino)phenyl)buta-1,3-dien-1-yl)-3-methylbenzo[d]thiazol-3-ium Iodide], the affinity, expressed as Kd, was 0.601 ± 0.0948 µM. Compound `CN(C)c1ccc(/C=C/c2sc3ccccc3[n+]2C)cc1` [SZI-1, (E)-2-(4-(Dimethylamino)styryl)-3-methylbenzo[d]thiazol-3-ium Iodide] yielded a dissociation constant Kd of 0.508 ± 0.0948 µM.
